Data from patent publication US8822444B2, “Hepatitis C virus inhibitors” (Bristol-Myers Squibb Company, priority 2009, dated 2014).
Where two headings read alike, the source gives them in different places.

System: HCV 1b genotype
Assay: HCV Replicon assay
Format: cell-based
Settings: HCV 1b genotype replicon
Description: An HCV Replicon assay was utilized in the present disclosure, and was prepared, conducted and validated as described in commonly owned PCT/US2006/022197 and in O'Boyle et. al. Antimicrob Agents Chemother. 2005 April; 49(4):1346-53. Assay methods incorporating luciferase reporters have also been used as described (Apath.com).
HCV-neo replicon cells and replicon cells containing mutations in the NS5A region were used to test the currently described family of compounds. The compounds were determined to have more than 10-fold less inhibitory activity on cells containing mutations than wild-type cells. Thus, the compounds of the present disclosure can be effective in inhibiting the function of the HCV NS5A protein and are understood to be as effective in combinations as previously described in application PCT/US2006/022197 and commonly owned WO/04014852. Further, the compounds of the present disclosure can be effective against the HCV 1b genotype. It should also be understood that the compounds of the present disclosure can inhibit multiple genotypes of HCV. […] In one embodiment, compounds of the present disclosure are inhibitory versus 1a, 1b, 2a, 2b, 3a, 4a, and 5a genotypes.

[1] = Hepatitis C virus, read-out: 1b EC50 Range

Structure (SMILES)	EC50 [1]	EC50 (read-out: 1b EC50 Range)	EC50 (Hepatitis C virus, read-out: 1b EC50 (in nM or range))
COC(=O)N[C@H](C(=O)N1CCC[C@H]1c1nc(-c2ccc(N3CCC(c4c[nH]c([C@@H]5CCCN5C(=O)[C@@H](NC(=O)OC)C(C)C)n4)CC3)cc2)c[nH]1)C(C)C [QC-13, methyl ((1S)-1-(((2S)-2-(4-(1-(4-(2-((2S)-1-((2S)-2-((methoxycarbonyl)amino)-3-methylbutanoyl)-2-pyrrolidinyl)-1H-imidazol-4-yl)phenyl)-4-piperidinyl)-1H-imidazol-2-yl)-1-pyrrolidinyl)carbonyl)-2-methylpropyl)carbamate]	4.57 to 99 nM		
CCN(CC)[C@@H](C(=O)N1CCC[C@H]1c1nc(C2=CCC(C3CC=C(c4c[nH]c([C@@H]5CCCN5C(=O)[C@@H](c5ccccc5)N(CC)CC)n4)CC3)CC2)c[nH]1)c1ccccc1 (stereo partly drawn) [QC-3, (1R,1′R)-2,2′-(1,1′-bi(3-cyclohexen-1-yl)-4,4′-diylbis(1H-imidazole-4,2-diyl(2S)-2,1-pyrrolidinediyl))bis(N,N-diethyl-2-oxo-1-phenylethanamine)]		2 to 4.57 nM	
COC(=O)N[C@H](C(=O)N1CCC[C@H]1c1nc(-c2ccc(C3CCC(c4c[nH]c([C@@H]5CCCN5C(=O)[C@@H](NC(=O)OC)C(C)C)n4)CC3)cc2)c[nH]1)C(C)C (stereo partly drawn) [QC-17, methyl ((1S)-1-(((2S)-2-(4-(4-(4-(2-((2S)-1-((2S)-2-((methoxycarbonyl)amino)-3-methylbutanoyl)pyrrolidin-2-yl)-1H-imidazol-4-yl)phenyl)cyclohexyl)-1H-imidazol-2-yl)pyrrolidin-1-yl)carbonyl)-2-methylpropyl)carbamate]		2 to 4.57 nM	
COC(=O)N[C@H](C(=O)N1CCC[C@H]1c1nc(C2=CCC(C3CC=C(c4c[nH]c([C@@H]5CCCN5C(=O)[C@@H](NC(=O)OC)[C@@H](C)OC)n4)CC3)CC2)c[nH]1)[C@@H](C)OC (stereo partly drawn) [QC-5, methyl ((1S,2R)-2-methoxy-1-(((2S)-2-(4-(4′-(2-((2S)-1-(N-(methoxycarbonyl)-O-methyl-L-threonyl)-2-pyrrolidinyl)-1H-imidazol-4-yl)-1,1′-bi(3-cyclohexen-1-yl)-4-yl)-1H-imidazol-2-yl)-1-pyrrolidinyl)carbonyl)propyl)carbamate]		2 to 4.57 nM	
COC(=O)N[C@H](C(=O)N1CCC[C@H]1c1nc(-c2ccc(C34CCC(c5coc([C@@H]6CCCN6C(=O)[C@@H](NC(=O)OC)C(C)C)n5)(CC3)CC4)cc2)c[nH]1)C(C)C [Example M-4, methyl ((1S)-1-(((2S)-2-(4-(4-(4-(2-((2S)-1-((2S)-2-((methoxycarbonyl)amino)-3-methylbutanoyl)-2-pyrrolidinyl)-1H-imidazol-4-yl)phenyl)bicyclo[2.2.2]oct-1-yl)-1,3-oxazol-2-yl)-1-pyrrolidinyl)carbonyl)-2-methylpropyl)carbamate]	1000 to 10000 nM		
COC(=O)N[C@H](C(=O)N1CCC[C@H]1c1nc(-c2ccc(C3CCC(c4c[nH]c([C@@H]5CCCN5C(=O)[C@@H](NC(=O)OC)C(C)C)n4)CC3)cc2)c[nH]1)C(C)C (single isomer, unassigned) [QC-16]	2 to 4.57 nM		
COC(=O)N[C@H](C(=O)N1[C@@H]2C[C@@H]2C[C@H]1c1nc(Cl)c(-c2ccc(C34CCC(c5[nH]c([C@@H]6C[C@H]7C[C@H]7N6C(=O)[C@@H](NC(=O)OC)C(C)C)nc5Cl)(CC3)CC4)cc2)[nH]1)C(C)C [Example M-8, methyl ((1S)-1-(((1R,3S,5R)-3-(4-chloro-5-(4-(4-(4-chloro-2-((1R,3S,5R)-2-((2S)-2-((methoxycarbonyl)amino)-3-methylbutanoyl)-2-azabicyclo[3.1.0]hex-3-yl)-1H-imidazol-5-yl)bicyclo[2.2.2]oct-1-yl)phenyl)-1H-imidazol-2-yl)-2-azabicyclo[3.1.0]hex-2-yl)carbonyl)-2-methylpropyl)carbamate]	2 to 4.57 nM		
COC(=O)N[C@H](C(=O)N1CCC[C@H]1c1nc(C2CCC(C3CCC(c4c[nH]c([C@@H]5CCCN5C(=O)[C@@H](NC(=O)OC)[C@@H](C)OC)n4)CC3)CC2)c[nH]1)[C@@H](C)OC (stereo partly drawn) [QC-8, methyl ((1S,2R)-2-methoxy-1-(((2S)-2-(4-(4′-(2-((2S)-1-(N-(methoxycarbonyl)-O-methyl-L-threonyl)-2-pyrrolidinyl)-1H-imidazol-4-yl)-1,1′-bi(cyclohexyl)-4-yl)-1H-imidazol-2-yl)-1-pyrrolidinyl)carbonyl)propyl)carbamate]	100 to 999 nM		2.4 nM
